The source of these data is patent US5939279A, “Inhibition of bacterial binding by high-mannose oligosaccharides” (priority 1997, dated 1999).

One experiment has as its system Enterobacter cloacae. As to the kind of experiment: microbe, parasite or virus in culture. It is filed as cell-based. The settings on record: for inhibition of binding: even at 100 mM concentrations; for IC50: 1 h, read-out: 50% inhibition of binding. Here is the method:
(§1) Bacterial adherence was measured as follows: confluent HT-29 cell monolayers, contained in 24 well plates, were washed two times with PBS. Various amounts of the labeled bacteria, all in the same final volume of buffer, were added to the monolayers and allowed to incubate at 37° C. for 1 hour, with intermittent agitation. At least three wells received each concentration of bacteria. At the end of the incubation, unbound bacteria were removed by aspiration, and the monolayers were washed at least 5 times with PBS. After this thorough washing, the HT-29 cells were released from each well with a trypsin-EDTA mixture and the cell suspension was placed in a scintillation vial. Each well was then washed with another 0.5 ml of water along with scraping with a plastic paddle to remove any firmly attached cells. This second wash was then added to the same vial that contained the first trypsin digest. Ten ml of scintillation fluid were added and radioactivity was determined as a measure of the number of bacteria bound.
A variety of simple sugars (D-mannose, D-galactose, D-fructose, L-fucose, D-GlcNAc, sialic acid) were tested at various concentrations to determine their ability to block the adhesion of Enterobacter cloacae to the HT-29 cells. In addition, p-nitrophenyl-α-D-mannoside and 4-methylumbelliferyl-α-D-mannoside and glycopeptides with various high-mannose or complex types of oligosaccharides were also tested as inhibitors. […] […] The plates were then incubated and harvested as described above in the adherence assay, and the amount of radioactivity bound to the cell monolayer was determined.

For another experiment, the system named is HT-29 cells. The experiment in a line: Adhesion of E. cloacae to HT-29 cells grown in the presence of N-linked glycoprotein processing inhibitors. It is filed as cell-based. The settings on record: for activation at 100 µg/mL: inhibitor 100 μg/ml; for Adhesion (cpm): average of three sets of experiments; for change in the amount of radioactive bacteria bound: text summary of Table II; for activation at 5 µg/mL: inhibitor 5 μg/ml; for activation at 10 µg/mL: inhibitor 10 μg/ml; for activation at 50 µg/mL: inhibitor 50 μg/ml; for activation at 25 µg/mL: inhibitor 25 μg/ml. Here is the method: as §1
HT-29 cells were transferred at low density to multiwell plates, and grown in McCoy's medium containing different concentrations of various processing inhibitors. Thus, one 24-well plate was divided into 4 sections, each with 6 wells having the following components: castanospermine at 0, 5, 10, 25, 50 and 100 μg/ml; deoxymannojirimycin at 0, 5, 25, 50, 100 and 200 μg/ml; kifunensine at 0, 2, 5, 10, 25 and 50 μg/ml; swainsonine at 0, 1, 5, 10, 25 and 50 μg/ml. HT-29 cells were allowed to grow to confluency over a period of 4 to 5 days. Once the cells reached confluency, the media was removed by aspiration and the monolayers were washed with PBS. Each well was then challenged with the same number of radioactive bacteria to determine the extent of bacterial adhesion, as described above in the adhesion assay.

The subject of a further experiment is Escherichia coli. The settings on record: studies by Firon et al (8); cited from earlier work.
The next experiment deals with 35 kDa pili subunit (Enterobacter cloacae, UniProt Q9Z643). As to the kind of experiment: Modified Western blot: labeling of pili adhesive subunit by α-mannosylated-biotinylated-albumin. The following applies: 50 mM sugar in incubation; FIG. 5. It is filed as binding. On the technique in general: A western blot detects proteins with antibodies after separation by electrophoresis.

The mark [1] stands for this setting: Homo sapiens, HT-29, percent relative to the control, read-out: Increase in adhesion (%).
Setting [2] is: inhibitor 5 μg/ml in culture medium.
Where [3] appears, read: inhibitor 10 μg/ml in culture medium.
Setting [4] is: inhibitor 25 μg/ml in culture medium.
[5] abbreviates: inhibitor 50 μg/ml in culture medium.
[6] abbreviates: inhibitor 100 μg/ml in culture medium.

35 kDa pili subunit, sequence (Q9Z643 entry or part of it): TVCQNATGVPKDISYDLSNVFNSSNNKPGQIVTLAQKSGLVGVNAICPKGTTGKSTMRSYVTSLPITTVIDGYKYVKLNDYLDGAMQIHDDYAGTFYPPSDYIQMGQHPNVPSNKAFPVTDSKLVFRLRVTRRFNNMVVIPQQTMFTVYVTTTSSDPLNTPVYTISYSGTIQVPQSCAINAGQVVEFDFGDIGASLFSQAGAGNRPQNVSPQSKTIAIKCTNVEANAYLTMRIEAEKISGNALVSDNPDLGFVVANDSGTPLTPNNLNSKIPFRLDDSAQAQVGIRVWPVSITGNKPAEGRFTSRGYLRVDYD
Experimental for 35 kDa pili subunit: Modified Western blot using an α-mannosylated-biotinylated-albumin, followed by an avidin-horseradish peroxidase conjugate and then visualization with 4-chloro-napthol according to the manufacturer's directions; D. Reaction system as in C, but incubated in the presence of 50 mM α-D-glucose; E. Reaction system as in C and D, but incubated in the presence of 50 mM α-D-mannose.
Thus, purified pili were subjected to 12% SDS-PAGE, and the resulting protein bands were transferred to nitrocellulose membranes. After washing the membranes to remove SDS, and incubating them with PBS containing 5% bovine serum albumin, they were incubated for 2 hours at room temperature with a mannosylated-albumin that contained a biotin tag. Some incubations also contained 50 mM D-mannose or 50 mM D-glucose.

As to `CC(=O)N[C@H]1[C@H]([C@H](O)[C@H](O)CO)OC(O)(C(=O)O)C[C@@H]1O` (some centres unmarked) [sialic acid], the inhibition of binding entry in the experiment with Enterobacter cloacae is given as “did not inhibit binding”.

Regarding `C[C@H](O)[C@@H](O)[C@@H](O)[C@H](O)C=O` [L-fucose], in the experiment on Enterobacter cloacae, the inhibition of binding entry was “did not inhibit binding”.

Regarding `O[C@H]1[C@H](O)[C@@H](O)CN2CC[C@H](O)[C@H]12` [Castanospermine], the activation at 100 µg/mL in the experiment with HT-29 cells (setting [1]) came out at 8%. Moreover, the “Adhesion (cpm)” value in the experiment with HT-29 cells (setting [2]) is 12,410 cpm; in the experiment on HT-29 cells (setting [3]), 13,787 cpm; in the experiment with HT-29 cells (setting [4]) it was 13,973 cpm; in the experiment with HT-29 cells (setting [5]), 13,626 cpm; with HT-29 cells (setting [6]), 14,943 cpm. In the experiment on HT-29 cells, the “change in the amount of radioactive bacteria bound” value is given as “did not cause any significant change”.

Turning to `OC[C@H]1OC(O)[C@H](O)[C@@H](O)[C@@H]1O` (stereo partly drawn) [D-glucose], in the experiment with Enterobacter cloacae, the inhibition of binding result is “did not inhibit binding”.

Take `CO[C@H]1O[C@H](CO)[C@@H](O)[C@H](O)[C@@H]1O` [α-methylmannoside]: in the experiment with Enterobacter cloacae (5 mM added to the monolayers after the bacteria had bound), the reversal of binding entry is recorded as “reversed”. For the same compound, the IC50 with Enterobacter cloacae (Enterobacter cloacae) turned out to be 150 µM.

With `CC(=O)N[C@H]1C(O)O[C@H](CO)[C@@H](O)[C@@H]1O` (some centres unmarked) [N-acetylglucosamine], in the experiment on Enterobacter cloacae, the inhibition of binding result is listed as “did not inhibit binding”.

As for `CC(=O)N[C@H]1C(O)O[C@H](CO)[C@H](O)[C@@H]1O` (some centres unmarked) [N-acetylgalactosamine], in the experiment with Enterobacter cloacae, the inhibition of binding result is listed as “did not inhibit binding”.

For the compound `O=[N+]([O-])c1ccc(O[C@H]2O[C@H](CO)[C@@H](O)[C@H](O)[C@@H]2O)cc1` [p-nitrophenyl-α-D-mannoside], in the experiment with Escherichia coli, the “inhibitor of Escherichia coli binding to epithelial cells, relative effectiveness” value is on record as “considerably better as an inhibitor than was α-methylmannoside”. Besides, in the experiment with Enterobacter cloacae (0.5 mM added to the monolayers after the bacteria had bound), the reversal of binding entry is listed as “reversed”. Also, in the experiment on Enterobacter cloacae (Enterobacter cloacae), the IC50 came out at 20 µM.

Turning to `O[C@H]1[C@H]2[C@H](O)CCCN2C[C@H]1O` [Swainsonine], in the experiment on HT-29 cells (Homo sapiens, HT-29, inhibitor 1 μg/ml, percent relative to the control, read-out: Increase in adhesion (%)), the activation at 1 µg/mL was determined as 10%. In addition, the activation at 5 µg/mL in the experiment on HT-29 cells (setting [1]) was 5%. Moreover, the activation at 10 µg/mL with HT-29 cells (setting [1]) was 11%. In addition, the activation at 50 µg/mL in the experiment on HT-29 cells (setting [1]) amounted to 8%. For the same compound, the “Adhesion (cpm)” value in the experiment on HT-29 cells (inhibitor 1 μg/ml in culture medium) is 15,219 cpm; in the experiment on HT-29 cells (setting [2]), 14,577 cpm; in the experiment with HT-29 cells (setting [3]) it was 15,275 cpm; in the experiment with HT-29 cells (setting [4]), 13,857 cpm; in the experiment with HT-29 cells (setting [5]) it was 14,965 cpm. Moreover, the “change in the amount of radioactive bacteria bound” value in the experiment with HT-29 cells is “did not cause any change”.

Consider `OC[C@H]1NC[C@@H](O)[C@@H](O)[C@@H]1O` [Deoxymannojirimycin], for which the activation at 5 µg/mL in the experiment with HT-29 cells (setting [1]) came out at 36%. The activation at 25 µg/mL in the experiment on HT-29 cells (setting [1]) was 47%. In addition, the activation at 50 µg/mL in the experiment on HT-29 cells (setting [1]) turned out to be 49%. The activation at 100 µg/mL in the experiment on HT-29 cells (setting [1]) is 53%. Also, the activation at 200 µg/mL with HT-29 cells (Homo sapiens, HT-29, inhibitor 200 μg/ml, percent relative to the control, read-out: Increase in adhesion (%)) was determined as 50%. The “Adhesion (cpm)” value in the experiment on HT-29 cells (setting [2]) is 18,630 cpm; in the experiment with HT-29 cells (setting [4]), 20,180 cpm; in the experiment with HT-29 cells (setting [5]), 20,500 cpm; in the experiment on HT-29 cells (setting [6]), 21,018 cpm; with HT-29 cells (inhibitor 200 μg/ml in culture medium), 20,548 cpm.

The term inhibition denotes the drop in the measured response relative to a control, in per cent. On to `Cc1cc(=O)oc2cc(O[C@H]3O[C@H](CO)[C@@H](O)[C@H](O)[C@@H]3O)ccc12` [4-methylumbilliferyl-α-D-mannoside, 4-methylumbelliferyl-α-D-mannoside], for which the “inhibitor of Escherichia coli binding to epithelial cells, relative effectiveness” value in the experiment with Escherichia coli is “even better then the p-nitrophenyl-derivative”. Further, the IC50 in the experiment with Enterobacter cloacae (Enterobacter cloacae) is 10 µM. For the same compound, the inhibition at 100 µM in the experiment on Enterobacter cloacae (Enterobacter cloacae, read-out: inhibition of binding) lay in the range of 80 to 90%.

As to `OC[C@H]1OC(O)[C@@H](O)[C@@H](O)[C@@H]1O` (stereo partly drawn) [D-mannose], in the experiment on Enterobacter cloacae (Enterobacter cloacae), the IC50 came to 500 µM. The “labeling of the 35 kDa band by mannosylated-biotinylated-albumin” value on 35 kDa pili subunit is recorded as “inhibited”.

As for `O=C1N[C@@H]2[C@@H](O)[C@@H](O)[C@H](O)[C@@H](CO)N2C1=O` [Kifunensine], the activation at 2 µg/mL in the experiment with HT-29 cells (Homo sapiens, HT-29, inhibitor 2 μg/ml, percent relative to the control, read-out: Increase in adhesion (%)) amounted to 42%. Further, in the experiment on HT-29 cells (setting [1]), the activation at 5 µg/mL was 50%. The activation at 10 µg/mL with HT-29 cells (setting [1]) stood at 43%. The activation at 25 µg/mL in the experiment on HT-29 cells (setting [1]) is 52%. Besides, the activation at 50 µg/mL in the experiment on HT-29 cells (setting [1]) was 75%. The “Adhesion (cpm)” value is reported as 19,033 cpm with HT-29 cells (inhibitor 2 μg/ml in culture medium); 20,161 cpm in the experiment on HT-29 cells (setting [2]); 19,257 cpm in the experiment with HT-29 cells (setting [3]); 20,414 cpm in the experiment with HT-29 cells (setting [4]); 23,442 cpm with HT-29 cells (setting [5]).

`O=C[C@H](O)[C@@H](O)[C@@H](O)[C@H](O)CO` [D-galactose]: the inhibition of binding result in the experiment on Enterobacter cloacae is recorded as “did not inhibit binding”.
